# Results published in patent publication US7601373B2, “Equine feed product” (priority 2002, dated 2009).
# Legend:
# [1] = tested on: foals, yearlings and adult horses; assay: Example Five: calcium feeding trials at various stages of development; type: in vivo, horse
# Method: A number of trials were conducted on horses throughout various stages of development fed with varying levels of calcium. The first two trials were conducted on twelve foals over a nine month period. The trial began when the foals were aged three months. […] Each foal was fed 2.5 g of Calcium a day within a balanced diet for a period of three months. The Calcium dosage was then increased to 5.0 g a day for a further period of six months as the foals average weight had increased to 240 kg.
# The third trial comprised a group of ten yearlings with average weight 425 kg body. The yearlings were fed 7.5 g of Calcium a day over a period of ten weeks. The fourth trial was conducted on adult horses with average body weight of 500 kg aged 18+ months. Each adult horse was fed 10.0 g of Calcium per day.
# horses [2] = assay: Example One: amino acid feeding trial with varied lysine; PCV, haemoglobin, coat colour, racecourse performance; type: in vivo, horse; settings: 15 g/day lysine with 5 g/day methionine and 5 g/day threonine
# Method: Lysine, methionine and threonine are essential amino acids. Trials were conducted on eleven horses (eight geldings and three fillies) where the horses were randomly split into three groups. Two groups contained four horses and the third group contained three horses. The horses varied in age between three and eight years old with an average body weight of 500 kg. The Packed Cell Volumes (PCVs) and haemoglobin levels of each horse were tested. Visual observations such as coat colour and racecourse performances were also monitored. In these Example all three amino acids were administered to the horses together as all three amino acids are essential. The quantities of methionine and threonine were constant for each group whilst the quantity of lysine was varied between the groups. Oats are deficient in lysine therefore it is necessary to boost the horses intake of lysine while maintaining a constant level of methionine and threonine
# Quantities of Amino Acid Administered to Horses Daily
# [3] = tested on: poor performing racehorses; settings: six anaemic racehorses, within a matter of weeks; cited from earlier work
# thoroughbred yearlings = assay: Example Three: inorganic versus chelated copper with chelated zinc in feed supplement; type: in vivo, horse; settings: 100 mg/day copper and 300 mg/day chelated zinc in 100 g/day supplement, ten weeks, grass high in molybdenum
# Method: A trial was conducted on ten thoroughbred yearlings (six colts and four fillies) using optimum levels of copper and zinc. The horses were divided into two groups with five horses in each group. The trials were conducted over a period of ten weeks. During this period the horses were stabled, each horse was handwalked for one hour a day and put to grass for three hours a day.
# The copper used in the feed supplement for the first group of five horses was inorganic copper, copper sulfate whilst the copper used in the oat-balancing feed supplement for the second group was chelated copper. The horses has an average body weight of 425 kg. The horses were fed a combined diet of Ryegrass Hay, Rolled Irish Oats, Cooked Flaxseed and the feed supplement.
# In trial one, 100 g of the oat balancing feed supplement was fed to each horse daily. There was 100 mg of inorganic copper in present in the oat balancing feed supplement.
# Group 1: 100 mg/day Inorganic Copper & 300 mg/day Chelated Zinc
# In the second group the five horses were fed the same combined diet however the copper present in the feed supplement was chelated copper. Again there was 100 mg of copper present in 100 g of the oat balancing feed supplement.
# Group 2: 100 mg/day Chelated Copper & 300 mg/day Chelated Zinc
# horses [4] = assay: Example Four: magnesium supplementation, Stress Tetany and performance; type: in vivo, horse
# From the text: Magnesium is considered to be an essential daily mineral in equine diets. A deficiency of magnesium in the diet in conjunction with any condition that will produce stress can lead to Stress Tetany. An example of a stress-causing condition is transportation of the horse over long distances. […] Some weeks later the same horse was transported to another location. The journey lasted approximately four hours.
# Trials conducted where the quantity of magnesium introduced into the horse was varied from 2 g/day of magnesium oxide to 4 g/day of magnesium oxide.
compound,measurement,setting,value
[Ca+2] [Calcium],"bone development, limb formation and weight gain",[1]; 2.5 to 10.0 g/day Calcium according to age,"clinically adequate bone development, correct limb formation and normal weight gain"
same,Average weight at 6 months,"[1]; Foals 3-6 months, 2.5 g/day Calcium, 118 Kg at 3 months",240 Kg at 6 months
same,Average weight at 12 months,"[1]; Foals 6-12 months, 5.0 g/day Calcium, 240 Kg at 6 months",375 Kg at 12 months
same,Average weight at 18 months,"[1]; Yearlings 12-18 months, 7.5 g/day Calcium, 375 Kg at 12 months",475 Kg at 18 months
NCCCC[C@H](N)C(=O)O [lysine],coat colour and racecourse performance,horses [2],optimum coat colour and racecourse performance
same,PCV levels,"horses [2]; average of horses, 500 kg",> 42 per cent per liter
same,haemoglobin levels,"horses [2]; average of horses, 500 kg",> 14 g per deciliter
N[C@@H](Cc1cc(I)c(Oc2cc(I)c(O)c(I)c2)c(I)c1)C(=O)O [Thyroxine],red cell parameters,[3],all elevated
"O=S(=O)([O-])[O-].[Cu+2] [Inorganic Copper, copper sulfate]",coat colour,thoroughbred yearlings,poor coat colour
same,red cell production,thoroughbred yearlings,decreased red cell production
same,thrive,thoroughbred yearlings,lack of thrive
[O]=[Mg] [magnesium oxide],performance,horses [4]; 4 g/day of magnesium oxide (varied from 2 g/day to 4 g/day),optimum performance
same,"temperament, weight and coat colour",horses [4]; magnesium oxide 4 g/day,improvement in the temperament of the horse was observed in conjunction with weight gain and better coat colour
